Experimental data published in PubChem BioAssay (NCI).
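Results reflect a 48-hour exposure of cells in 96-well plates to compound at five concentrations. GI50 = concentration required for 50% inhibition of growth. TGI denotes the concentration required for complete inhibition of growth.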

Experiments:
Assay in all cases: NCI anticancer screen, dose series, 48 h
CCRF-CEM leukemia = test system: CCRF-CEM leukemia
HCT-15 colon = test system: HCT-15 colon
HS 578T breast = test system: HS 578T breast
MCF7 breast = test system: MCF7 breast
SF-268 CNS = test system: SF-268 CNS
SK-MEL-28 melanoma = test system: SK-MEL-28 melanoma
SNB-75 CNS = test system: SNB-75 CNS
T-47D breast = test system: T-47D breast
TK-10 renal = test system: TK-10 renal
M14 melanoma = test system: M14 melanoma

Row | SMILES | TGI (CCRF-CEM leukemia) | TGI (HCT-15 colon) | TGI (HS 578T breast) | TGI (MCF7 breast) | TGI (SF-268 CNS) | TGI (SK-MEL-28 melanoma) | TGI (SNB-75 CNS) | TGI (T-47D breast) | TGI (TK-10 renal) | TGI (M14 melanoma) | GI50 (T-47D breast)
1 | O=c1c(SSc2coc3cc(F)ccc3c2=O)coc2cc(F)ccc12 | 37.9 µM | 33.3 µM | 68 µM | 43.6 µM | > 100 µM | 30.4 µM | 33.6 µM | 46.6 µM | 66.5 µM | – | –
2 | CCCCc1c(C(=O)OC(C)(C)C)cc(C#Cc2cc(C(=O)OC(C)(C)C)c(CCCC)c(C(=O)OC(C)(C)C)c2)cc1C(=O)OC(C)(C)C | – | > 100 µM | – | > 100 µM | > 100 µM | > 100 µM | > 100 µM | > 100 µM | > 100 µM | > 100 µM | –
3 | Cc1ccc(OCC2OC(n3cnc4nc(Cl)nc(Cl)c43)CC2Oc2ccc(C)cc2)cc1 (configuration not stated) | > 23.1 µM | 6.33 µM | 54.6 µM | 20.6 µM | 23.4 µM | 14.1 µM | 28.5 µM | 30.7 µM | 28.7 µM | 20.5 µM | –
4 | CN(C(=O)Cc1ccc(Cl)c(Cl)c1)[C@H]1CCCC[C@@H]1[N+]1(C)CCCC1 | – | > 100 µM | > 100 µM | > 100 µM | > 100 µM | > 100 µM | – | > 100 µM | > 100 µM | > 100 µM | –
5 | O=C(O)CCCCCOc1cccnc1/C=N/NC1=NCCN1 | > 100 µM | > 100 µM | – | – | > 100 µM | > 100 µM | 91.2 µM | – | > 100 µM | > 100 µM | –
6 | CCOc1ccc(/C=C(\Cl)c2ccc(OC)c(OC)c2)cc1 | > 100 µM | > 100 µM | – | – | > 100 µM | > 100 µM | > 100 µM | – | – | 89.6 µM | –
7 | C=C1C(=O)OC2(C)C3CCC(C3)C12 (configuration not stated) | > 100 µM | > 100 µM | – | – | > 100 µM | > 100 µM | > 100 µM | – | 85.7 µM | 95.7 µM | –
8 | O=C(Nc1nc2c(=O)[nH]cnc2s1)c1ccccc1 | > 100 µM | > 100 µM | > 100 µM | > 100 µM | > 100 µM | > 100 µM | > 100 µM | – | > 100 µM | – | –
9 | Cc1ccc(OCC2OC(n3cnc4c(N(C)C)nc(Br)nc43)CC2Oc2ccc(C)cc2)cc1 (configuration not stated) | > 100 µM | > 100 µM | > 100 µM | > 100 µM | > 100 µM | > 100 µM | – | > 100 µM | > 100 µM | > 100 µM | –
10 | NC(=Nc1ccc(O)cc1)S(=O)(=O)O | > 100 µM | > 100 µM | > 100 µM | > 100 µM | > 100 µM | – | > 100 µM | > 100 µM | > 100 µM | > 100 µM | –
11 | O=C1/C(=C\c2cccc(Oc3ccccc3)c2)S(=O)(=O)C(c2ccccc2)N1c1ccccc1Cl (configuration not stated) | 51.2 µM | > 100 µM | – | > 100 µM | – | > 100 µM | 74.5 µM | > 100 µM | > 100 µM | 89.1 µM | –
12 | O=C(Nc1nc2ccccc2n1Cc1ccccc1)NC12CC3CC(CC(C3)C1)C2 | > 100 µM | > 100 µM | – | – | 35.5 µM | > 100 µM | 49.8 µM | – | > 100 µM | > 100 µM | –
13 | O=[N+]([O-])/C(C(Cl)=C(Cl)Cl)=C1\NCCO1 | 66.7 µM | > 100 µM | 90.5 µM | > 100 µM | > 100 µM | > 100 µM | – | > 100 µM | > 100 µM | > 100 µM | –
14 | COC1=C(N=[N+]=[N-])C(=O)c2ncccc2C1=O | – | 20.4 µM | 48.6 µM | 3.41 µM | 28.5 µM | 27.4 µM | 26 µM | 3.85 µM | 20.4 µM | 8.66 µM | –
15 | NC(=O)c1nnc2cc(F)ccc2c1N | > 100 µM | > 100 µM | > 100 µM | > 100 µM | > 100 µM | – | > 100 µM | > 100 µM | > 100 µM | > 100 µM | –
16 | COC(=O)c1cc(NC(=O)c2cc(NC(=O)c3cc([N+](=O)[O-])cn3C)cn2C)cn1C | > 100 µM | > 100 µM | – | > 100 µM | > 100 µM | > 100 µM | > 100 µM | > 100 µM | 94.7 µM | > 100 µM | –
17 | CCOC(=O)c1cc(C(=O)c2ccccc2)n2nc(-c3ccc(Cl)cc3)ccc12 | > 100 µM | > 100 µM | 41.5 µM | 53.2 µM | 27.6 µM | 68.3 µM | – | 92.3 µM | 47.8 µM | 90.7 µM | –
18 | CC(C)CCC[C@@H](C)[C@H]1CCC2C3CC=C4C[C@@H](Oc5c6ccccc6nc6ccccc56)CCC4C3CCC21 (some centres not stated) | > 50 µM | > 50 µM | > 50 µM | – | > 50 µM | > 50 µM | – | > 50 µM | > 50 µM | > 50 µM | –
19 | O=c1/c(=C\c2ccccc2)sc2n1C(c1ccccc1)C1(O)CCCCC1N=2 (configuration not stated) | > 100 µM | > 100 µM | – | > 100 µM | > 100 µM | > 100 µM | > 100 µM | > 100 µM | > 100 µM | > 100 µM | –
20 | O=C(N=C1SCCN1C(=O)C(C(F)(F)F)C(F)(F)F)C(C(F)(F)F)C(F)(F)F | > 100 µM | > 100 µM | – | > 100 µM | – | > 100 µM | – | – | > 100 µM | > 100 µM | –
21 | CCOC(=O)Oc1cc2c(c(OC)c1OC)-c1ccc(SC)c(=O)cc1C(NC(=O)C(F)(F)F)CC2 (configuration not stated) | 4.92 µM | > 100 µM | < 0.001 µM | 19.5 µM | – | > 100 µM | > 100 µM | 81 µM | – | 38.8 µM | 21.4 µM
22 | O=C1CSc2nc3ccccc3n2/C=N\N1 | > 100 µM | > 100 µM | – | > 100 µM | > 100 µM | > 100 µM | – | – | > 100 µM | > 100 µM | –
23 | Cn1c(C(C#N)c2nc(Cl)ncc2Br)nc2ccccc21 (configuration not stated) | – | > 100 µM | – | – | > 100 µM | > 100 µM | > 100 µM | > 100 µM | > 100 µM | > 100 µM | –
24 | CCCCCC(=O)c1ccc2[nH]c3c(C)cc([N+](=O)[O-])c(C)c3c2c1 | > 100 µM | > 100 µM | – | – | > 100 µM | > 100 µM | > 100 µM | – | > 100 µM | > 100 µM | –
25 | Cc1ccc(S(=O)(=O)/N=C(\NN)Nc2ccc(Cl)cc2)cc1 | > 100 µM | > 100 µM | – | > 100 µM | – | > 100 µM | > 100 µM | > 100 µM | > 100 µM | > 100 µM | –
